In patent publication US20250353891A1 (MEDIMMUNE LIMITED, priority 2022, published 2025):
Starred links: 1 amine or outer side, 2 acyl side, 3 side chain; linkers in the order of their positions; H or OH if unused. Non-standard residues stand in square brackets, D forms with d. Residues, ends and D or L forms follow the SMILES beside them. Groups on a side chain read outwards from the residue. *: point of attachment. Heptadecanoyl = CCCCCCCCCCCCCCCCC(=O)*; γGlu = O=C(O)[C@H](CCC(=O)[*:2])N[*:1]; Stearoyl = CCCCCCCCCCCCCCCCCC(=O)*; Palmitoyl = CCCCCCCCCCCCCCCC(=O)*; αMeF = C[C@](N)(Cc1ccccc1)C(=O)O; PEG2 = NCCOCCOCCC(=O)O; Aib = CC(C)(N)C(=O)O

Experiments:
[1] = target: human glucagon receptor (hGCGR) (Homo sapiens, UniProt P47871); test: cAMP production (HTRF) in CHO cells expressing hGCGR; format: cell-based; set-up: expressed in transfected cells; details: Table 6, peptides modified at position 17; cAMP in CHO hGCGR cells; geometric mean; read-out: hGluc-R EC50
human glucagon receptor (hGCGR), sequence (P47871 26-477): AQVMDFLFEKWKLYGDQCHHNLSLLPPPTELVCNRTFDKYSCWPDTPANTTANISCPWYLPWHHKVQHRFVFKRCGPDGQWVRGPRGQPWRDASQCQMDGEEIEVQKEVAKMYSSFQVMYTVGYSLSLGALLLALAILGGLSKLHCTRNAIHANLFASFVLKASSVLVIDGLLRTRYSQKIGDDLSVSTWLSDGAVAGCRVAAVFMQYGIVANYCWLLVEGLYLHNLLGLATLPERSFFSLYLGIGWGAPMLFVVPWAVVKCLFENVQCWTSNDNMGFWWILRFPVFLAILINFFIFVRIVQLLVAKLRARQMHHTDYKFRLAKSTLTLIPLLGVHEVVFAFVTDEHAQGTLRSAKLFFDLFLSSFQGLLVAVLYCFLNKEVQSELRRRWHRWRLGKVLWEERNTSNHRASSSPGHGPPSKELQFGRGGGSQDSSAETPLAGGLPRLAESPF
Outline: (§1)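 Cells were resuspended in assay buffer at batch-optimized density, typically 1×10^5 cells/mL for hGLP-1R and 2×10^5 cells/mL for hGCGR. After 30 min incubation at room temperature with compound, cAMP was measured by two-step HTRF. EC50 values came from 4-parameter logistic fits of % Delta F.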

[2] = target: human GLP-1 receptor (hGLP-1R) (Homo sapiens, UniProt P43220); test: cAMP production (HTRF) in CHO cells expressing hGLP-1R; format: cell-based; set-up: expressed in transfected cells; details: for EC50: Table 6, peptides modified at position 17, cAMP in CHO hGLP-1R cells, geometric mean, read-out: hGLP-1R EC50; for % Relative Potency Ratio: Table 6, % GLP-1R activity relative to GLP-1 / % GlucR activity relative to glucagon
human GLP-1 receptor (hGLP-1R), sequence (P43220 24-463): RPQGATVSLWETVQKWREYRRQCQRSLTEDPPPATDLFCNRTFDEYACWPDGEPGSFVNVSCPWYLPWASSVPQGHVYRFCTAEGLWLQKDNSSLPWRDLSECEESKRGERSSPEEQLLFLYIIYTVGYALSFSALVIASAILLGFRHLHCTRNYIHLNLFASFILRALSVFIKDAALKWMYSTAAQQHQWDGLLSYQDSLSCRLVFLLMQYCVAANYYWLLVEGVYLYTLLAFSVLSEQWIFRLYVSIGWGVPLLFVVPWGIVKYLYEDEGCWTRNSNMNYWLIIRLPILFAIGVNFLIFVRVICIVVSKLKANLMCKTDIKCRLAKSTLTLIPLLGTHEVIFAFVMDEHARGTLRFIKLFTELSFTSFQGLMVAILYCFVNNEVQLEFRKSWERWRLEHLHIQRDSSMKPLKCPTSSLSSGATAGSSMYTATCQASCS
Outline: as §1

Row | Compound | EC50 [1] [pM] | EC50 [2] [pM] | % Relative Potency Ratio [2]
1 | CCCCCCCCCCCCCCCCCC(=O)N[C@@H](CCC(=O)N[C@@H](CCC(=O)NCCOCCOCCC(=O)NCCOCCOCCC(=O)NCCCC[C@H](NC(=O)[C@H](CO)NC(=O)[C@H](CC(=O)O)NC(=O)[C@H](CC(C)C)NC(=O)[C@](C)(Cc1ccccc1)NC(=O)[C@H](CCCCN)NC(=O)[C@H](CO)NC(=O)[C@@H](NC(=O)[C@H](CC(=O)O)NC(=O)[C@H](CO)NC(=O)[C@@H](NC(=O)[C@](C)(Cc1ccccc1)NC(=O)[C@H](CO)NC(=O)CNC(=O)[C@H](CCC(N)=O)NC(=O)[C@H](CO)NC(=O)[C@@H](N)Cc1c[nH]cn1)[C@@H](C)O)C(C)C)C(=O)N[C@@H](C)C(=O)N[C@@H](C)C(=O)N[C@@H](CCC(N)=O)C(=O)N[C@@H](CC(=O)O)C(=O)N[C@@](C)(Cc1ccccc1)C(=O)N[C@H](C(=O)N[C@@H](CCC(N)=O)C(=O)NC(C)(C)C(=O)N[C@H](C(=O)N[C@H](C(=O)N[C@@H](CCC(=O)O)C(=O)NCC(=O)NCC(N)=O)C(C)C)C(C)C)C(C)C)C(=O)O)C(=O)O [Peptide 85] (H-HSQGS[αMeF]TSDVSK[αMeF]LDSK([PEG2-PEG2-γGlu-γGlu-Stearoyl])AAQD[αMeF]VQ[Aib]VVEGG-NH2; N-terminus assumed) | 47.7 | 1.04 | 90.9
2 | CCCCCCCCCCCCCCCC(=O)N[C@@H](CCC(=O)N[C@@H](CCC(=O)NCCOCCOCCC(=O)NCCOCCOCCC(=O)NCCCC[C@H](NC(=O)[C@H](CO)NC(=O)[C@H](CC(=O)O)NC(=O)[C@H](CC(C)C)NC(=O)[C@](C)(Cc1ccccc1)NC(=O)[C@H](CCCCN)NC(=O)[C@H](CO)NC(=O)[C@@H](NC(=O)[C@H](CC(=O)O)NC(=O)[C@H](CO)NC(=O)[C@@H](NC(=O)[C@](C)(Cc1ccccc1)NC(=O)[C@H](CO)NC(=O)CNC(=O)[C@H](CCC(N)=O)NC(=O)[C@H](CO)NC(=O)[C@@H](N)Cc1c[nH]cn1)[C@@H](C)O)C(C)C)C(=O)N[C@@H](C)C(=O)N[C@@H](C)C(=O)N[C@@H](CCC(N)=O)C(=O)N[C@@H](CC(=O)O)C(=O)N[C@@](C)(Cc1ccccc1)C(=O)N[C@H](C(=O)N[C@@H](CCC(N)=O)C(=O)NC(C)(C)C(=O)N[C@H](C(=O)N[C@@H](C)C(=O)N[C@@H](CC(N)=O)C(N)=O)[C@@H](C)CC)C(C)C)C(=O)O)C(=O)O [Peptide 87] (H-HSQGS[αMeF]TSDVSK[αMeF]LDSK([PEG2-PEG2-γGlu-γGlu-Palmitoyl])AAQD[αMeF]VQ[Aib]IAN-NH2; N-terminus assumed) | 8.46 | 1.29 | 13.0
3 | CCCCCCCCCCCCCCCCCC(=O)N[C@@H](CCC(=O)N[C@@H](CCC(=O)NCCOCCOCCC(=O)NCCOCCOCCC(=O)NCCCC[C@H](NC(=O)[C@H](CO)NC(=O)[C@H](CC(=O)O)NC(=O)[C@H](CC(C)C)NC(=O)C(C)(C)NC(=O)[C@H](CCCCN)NC(=O)[C@H](CO)NC(=O)[C@@H](NC(=O)[C@H](CC(=O)O)NC(=O)[C@H](CO)NC(=O)[C@@H](NC(=O)[C@](C)(Cc1ccccc1)NC(=O)[C@H](CO)NC(=O)CNC(=O)[C@H](CCC(N)=O)NC(=O)[C@H](CO)NC(=O)[C@@H](N)Cc1c[nH]cn1)[C@@H](C)O)C(C)C)C(=O)N[C@@H](C)C(=O)N[C@@H](C)C(=O)N[C@@H](CCC(N)=O)C(=O)N[C@@H](CC(=O)O)C(=O)N[C@@](C)(Cc1ccccc1)C(=O)N[C@H](C(=O)N[C@@H](CCC(N)=O)C(=O)NC(C)(C)C(=O)N[C@@H](CC(C)C)C(=O)N[C@@H](CCC(=O)O)C(=O)N[C@@H](C)C(N)=O)C(C)C)C(=O)O)C(=O)O [Peptide 92] (H-HSQGS[αMeF]TSDVSK[Aib]LDSK([PEG2-PEG2-γGlu-γGlu-Stearoyl])AAQD[αMeF]VQ[Aib]LEA-NH2; N-terminus assumed) | 10.9 |  | 24.1
4 | CCCCCCCCCCCCCCCCCC(=O)N[C@@H](CCC(=O)N[C@@H](CCC(=O)NCCOCCOCCC(=O)NCCOCCOCCC(=O)NCCCC[C@H](NC(=O)[C@H](CO)NC(=O)[C@H](CC(=O)O)NC(=O)[C@H](CC(C)C)NC(=O)C(C)(C)NC(=O)[C@H](CCCCN)NC(=O)[C@H](CO)NC(=O)[C@@H](NC(=O)[C@H](CC(=O)O)NC(=O)[C@H](CO)NC(=O)[C@@H](NC(=O)[C@](C)(Cc1ccccc1)NC(=O)[C@H](CO)NC(=O)CNC(=O)[C@H](CCC(N)=O)NC(=O)[C@H](CO)NC(=O)[C@@H](N)Cc1c[nH]cn1)[C@@H](C)O)C(C)C)C(=O)N[C@@H](C)C(=O)N[C@@H](C)C(=O)N[C@@H](CCC(N)=O)C(=O)N[C@@H](CC(=O)O)C(=O)N[C@@](C)(Cc1ccccc1)C(=O)N[C@H](C(=O)N[C@@H](CCC(N)=O)C(=O)NC(C)(C)C(=O)N[C@@H](CC(C)C)C(=O)N[C@@H](C)C(=O)N[C@@H](CC(N)=O)C(N)=O)C(C)C)C(=O)O)C(=O)O [Peptide 93] (H-HSQGS[αMeF]TSDVSK[Aib]LDSK([PEG2-PEG2-γGlu-γGlu-Stearoyl])AAQD[αMeF]VQ[Aib]LAN-NH2; N-terminus assumed) | 8.92 |  | 37.4

Stronger by EC50 [1], values ahead:

Row | EC50 [1] [pM] | EC50 [2] [pM] | % Relative Potency Ratio [2] | Compound
5 | 6.46 |  | 16.6 | CCCCCCCCCCCCCCCCCC(=O)N[C@@H](CCC(=O)N[C@@H](CCC(=O)NCCOCCOCCC(=O)NCCOCCOCCC(=O)NCCCC[C@H](NC(=O)[C@H](CO)NC(=O)[C@H](CC(=O)O)NC(=O)[C@H](CC(C)C)NC(=O)[C@](C)(Cc1ccccc1)NC(=O)[C@H](CCCCN)NC(=O)[C@H](CO)NC(=O)[C@@H](NC(=O)[C@H](CC(=O)O)NC(=O)[C@H](CO)NC(=O)[C@@H](NC(=O)[C@](C)(Cc1ccccc1)NC(=O)[C@H](CO)NC(=O)CNC(=O)[C@H](CCC(N)=O)NC(=O)[C@H](CO)NC(=O)[C@@H](N)Cc1c[nH]cn1)[C@@H](C)O)C(C)C)C(=O)N[C@@H](C)C(=O)N[C@@H](C)C(=O)N[C@@H](CCC(N)=O)C(=O)N[C@@H](CC(=O)O)C(=O)N[C@@](C)(Cc1ccccc1)C(=O)N[C@H](C(=O)N[C@@H](CCC(N)=O)C(=O)NC(C)(C)C(=O)N[C@H](C(=O)N[C@@H](C)C(=O)N[C@@H](CC(N)=O)C(N)=O)[C@@H](C)CC)C(C)C)C(=O)O)C(=O)O [Peptide 86] (H-HSQGS[αMeF]TSDVSK[αMeF]LDSK([PEG2-PEG2-γGlu-γGlu-Stearoyl])AAQD[αMeF]VQ[Aib]IAN-NH2; N-terminus assumed)
6 | 6.47 | 1.04 | 12.3 | CCCCCCCCCCCCCCCCC(=O)N[C@@H](CCC(=O)N[C@@H](CCC(=O)NCCOCCOCCC(=O)NCCOCCOCCC(=O)NCCCC[C@H](NC(=O)[C@H](CO)NC(=O)[C@H](CC(=O)O)NC(=O)[C@H](CC(C)C)NC(=O)[C@](C)(Cc1ccccc1)NC(=O)[C@H](CCCCN)NC(=O)[C@H](CO)NC(=O)[C@@H](NC(=O)[C@H](CC(=O)O)NC(=O)[C@H](CO)NC(=O)[C@@H](NC(=O)[C@](C)(Cc1ccccc1)NC(=O)[C@H](CO)NC(=O)CNC(=O)[C@H](CCC(N)=O)NC(=O)[C@H](CO)NC(=O)[C@@H](N)Cc1c[nH]cn1)[C@@H](C)O)C(C)C)C(=O)N[C@@H](C)C(=O)N[C@@H](C)C(=O)N[C@@H](CCC(N)=O)C(=O)N[C@@H](CC(=O)O)C(=O)N[C@@](C)(Cc1ccccc1)C(=O)N[C@H](C(=O)N[C@@H](CCC(N)=O)C(=O)NC(C)(C)C(=O)N[C@H](C(=O)N[C@@H](C)C(=O)N[C@@H](CC(N)=O)C(N)=O)[C@@H](C)CC)C(C)C)C(=O)O)C(=O)O [Peptide 88] (H-HSQGS[αMeF]TSDVSK[αMeF]LDSK([PEG2-PEG2-γGlu-γGlu-Heptadecanoyl])AAQD[αMeF]VQ[Aib]IAN-NH2; N-terminus assumed)
7 | 6.61 | 1.87 | 7.0 | CCCCCCCCCCCCCCCC(=O)N[C@@H](CCC(=O)N[C@@H](CCC(=O)NCCOCCOCCC(=O)NCCOCCOCCC(=O)NCCCC[C@H](NC(=O)[C@H](CO)NC(=O)[C@H](CC(=O)O)NC(=O)[C@H](CC(C)C)NC(=O)[C@](C)(Cc1ccccc1)NC(=O)[C@H](CCCCN)NC(=O)[C@H](CO)NC(=O)[C@@H](NC(=O)[C@H](CC(=O)O)NC(=O)[C@H](CO)NC(=O)[C@@H](NC(=O)[C@](C)(Cc1ccccc1)NC(=O)[C@H](CO)NC(=O)CNC(=O)[C@H](CCC(N)=O)NC(=O)[C@H](CO)NC(=O)[C@@H](N)Cc1c[nH]cn1)[C@@H](C)O)C(C)C)C(=O)N[C@@H](C)C(=O)N[C@@H](C)C(=O)N[C@@H](CCC(N)=O)C(=O)N[C@@H](CC(=O)O)C(=O)N[C@@](C)(Cc1ccccc1)C(=O)N[C@H](C(=O)N[C@@H](CCC(=O)O)C(=O)NC(C)(C)C(=O)N[C@H](C(=O)N[C@@H](C)C(=O)N[C@@H](CC(N)=O)C(N)=O)[C@@H](C)CC)C(C)C)C(=O)O)C(=O)O [Peptide 90] (H-HSQGS[αMeF]TSDVSK[αMeF]LDSK([PEG2-PEG2-γGlu-γGlu-Palmitoyl])AAQD[αMeF]VE[Aib]IAN-NH2; N-terminus assumed)
8 | 5.4 |  | 20.7 | CCCCCCCCCCCCCCCCCC(=O)N[C@@H](CCC(=O)N[C@@H](CCC(=O)NCCOCCOCCC(=O)NCCOCCOCCC(=O)NCCCC[C@H](NC(=O)[C@H](CO)NC(=O)[C@H](CC(=O)O)NC(=O)[C@H](CC(C)C)NC(=O)C(C)(C)NC(=O)[C@H](CCCCN)NC(=O)[C@H](CO)NC(=O)[C@@H](NC(=O)[C@H](CC(=O)O)NC(=O)[C@H](CO)NC(=O)[C@@H](NC(=O)[C@](C)(Cc1ccccc1)NC(=O)[C@H](CO)NC(=O)CNC(=O)[C@H](CCC(N)=O)NC(=O)[C@H](CO)NC(=O)[C@@H](N)Cc1c[nH]cn1)[C@@H](C)O)C(C)C)C(=O)N[C@@H](C)C(=O)N[C@@H](C)C(=O)N[C@@H](CCC(N)=O)C(=O)N[C@@H](CC(=O)O)C(=O)N[C@@](C)(Cc1ccccc1)C(=O)N[C@H](C(=O)N[C@@H](CCC(N)=O)C(=O)NC(C)(C)C(=O)N[C@@H](CC(C)C)C(=O)N[C@@H](CO)C(=O)N[C@@H](CCC(=O)O)C(N)=O)C(C)C)C(=O)O)C(=O)O [Peptide 94] (H-HSQGS[αMeF]TSDVSK[Aib]LDSK([PEG2-PEG2-γGlu-γGlu-Stearoyl])AAQD[αMeF]VQ[Aib]LSE-NH2; N-terminus assumed)
